Test results reported in patent publication US11898168B2, “Methods of promoting esophageal differentiation of pluripotent stem cells” (The Trustees of Columbia University in the City of New York, priority 2017, dated 2024).

Key:
Format in all cases: cell-based, human
[1] = system: hESC RUES2-derived AFE cells; test: Specification of anterior foregut endoderm (AFE) towards esophageal progenitor cells, day 6-16, gene expression by qPCR/immunostaining
Procedure: hPSCs were differentiated into endodermal and anterior foregut using a previously described protocol (Huang et al., 2015; Huang et al., 2014). Serum-Free Differentiation (SFD) medium was prepared as follows: 750 ml of reconstituted IMDM (ThermoFisher Scientific), 250 ml of F-12 (Corning), 7.5 ml of BSA (ThermoFisher Scientific), 10 ml of Glutamax (ThermoFisher Scientific), 5 ml of N2 (ThermoFisher Scientific), 10 ml of B27 (ThermoFisher Scientific) and 10 ml of Penicillin/Streptomycin (ThermoFisher Scientific), and adding L-Ascorbic acid (Sigma-Aldrich) and MTG (Sigma-Aldrich) on the day of use to obtain a final concentration of 50 μg/ml and 0.04 μl/ml, respectively. To generate endoderm, hPSCs were detached by Accutase/EDTA and cultured in SFD medium plus 10 μM Rock inhibitor 100 ng/ml Activin A, Y-27632 (Tocris), 2.5 ng FGF2 and 0.5 ng/ml BMP4 (R&D Systems) in 6-well Ultra-Low-Attachment plates (Corning) for 72 hours (day 1-4). At day 4, anterior foregut progenitor cells were further induced by culturing endoderm in SFD medium plus 10 μM SB431542 (Tocris) and 100 ng/ml Noggin (R&D Systems) for 24 hours (day 4-5) and SFD medium plus 10 μM SB431542 and 1 μM IWP-2 (Tocris) for another 24 hours (day 5-6). Cells were maintained at 5% O2/95% N2/5% CO2 from day 1-6.
To induce esophageal progenitor cell differentiation, anterior foregut progenitor cells were cultured from day 6 to day 16 in SFD medium plus 10 μM SB431542 and 50 ng/ml Noggin. From day 16 to day 24, cells were maintained at SFD medium. A previously described protocol was followed to generate lung progenitor cells from AFE (Huang et al., 2015; Huang et al., 2014) in which AFE cells were cultured in 3 μM CHIR99021 (Tocris), 10 ng/ml human FGF10 (R&D Systems), 10 ng/ml human KGF (R&D Systems), 10 ng/ml human BMP4 and 50 nM retinoid acid (RA, Sigma). Cells were cultured at 5% O2/95% N2/5% CO2 at day 6-7 and maintained at 95% air/5% CO2 from day 7 onwards.
For immunofluorescence staining, cells were fixed in 4% paraformaldehyde (PFA) for 15 minutes at room temperature and washed with 1×PBS for three times. Cells were permeabilized with 0.3% Triton X-100 in 1×PBS for 15 minutes. Then cells were incubated in blocking solution (0.3% Triton X-100 plus 2% donkey serum in 1×PBS) for 1 hour. Primary antibodies were added into blocking solution and incubated at 4° C. overnight. The next day, cells were washed with 1×PBS for three times. Secondary antibodies conjugated to Alexa Fluor 488, Cy3, or Alexa Fluor 647 (Jackson Immunoresearch) were incubated for 1 hour. Images were taken using Leica DMI6000 B (Leica Microsystems) or DMi8 (Leica Microsystems) and a Zeiss LSM700 confocal laser scanning microscope. Bright field images were acquired using a Nikon Labophot 2 microscope equipped with a Nikon Digital Sight DS-Ri1 charge-coupled device camera. The thickness and areas composed of KRT13^+ cells were calculated by ImageJ (National Institutes of Health). For X-gal staining, tissues were fixed in 4% paraformaldehyde for 30 minutes and incubated in X-gal solution overnight at 37° C. as previously described (Que et al., 2006).
(§1) Cells were lysed with TRIzol (Invitrogen) and RNA was purified using the RNeasy Mini Kit (QIAGEN). RNA was reversely transcribed to cDNA by the SuperScript III First-Strand SuperMix (Invitrogen). cDNA was quantified by real-time PCR using the iQ SYBR Green Supermix (Bio-Rad) and StepOnePlus™ Real-Time PCR System (Applied Biosystems). The transcript level of each gene was normalized to the ß-actin control using 2(−ΔΔCT) method. Relative gene expression was calculated and reported as fold change compared to the indicated samples using ß-actin normalized transcript level. All qRT-PCR experiments were performed at least triplicate.

[2] = system: hPSC-derived EPCs; test: Squamous differentiation of purified hPSC-derived EPCs (KRT13, INV, KRT14 levels)
Procedure: To perform cell surface marker staining, cells were disassociated with 0.05% Trypsin-EDTA (ThermoFisher Scientific) and stained with fluorophore conjugated antibodies in FACS buffer (1×PBS, 2% FBS, 0.2 mM EDTA) for 30 min with live/dead staining dye (LIVE/DEAD™ Fixable Violet Dead Cell Stain Kit, ThermoFisher Scientific) to exclude dead cells. Intracellular staining cells were performed according to the manufacturer's instructions in eBioscience™ Foxp3/Transcription Factor Staining Buffer Set (ThermoFisher Scientific). Fixation and permeabilization was performed at room temperature for 1 hour followed by incubation of primary antibody for 1 hour. Cells were washed with 1×PBS and fluorophore-conjugated secondary antibodies were incubated for 1 hour. Stained cells were analyzed BD FACSCanto (BD Biosciences) data were analyzed with FlowJo software (Ashland, Oregon). Sorted EPCAM^+ ITGß4^+ cells were maintained in the medium containing 5% FBS, 20 ng/ml EGF, 20 ng/ml FGF2 and 10 μM Rock inhibitor Y27632.
as §1
The inventors have previously shown that BMP signaling activation promotes terminal differentiation of esophageal progenitors in the developing and adult esophagus (Jiang et al., 2015; Rodriguez et al., 2010). It was asked whether purified hPSCs-derived EPCs (ESC and iPSC-derived) respond to BMP activation in a similar manner.
(§2) It was then tested whether NOTCH signaling is involved in the differentiation of hPSC-derived EPCs. The iPSC-derived EPCs were treated with 10 μM γ-secretase inhibitor DAPT to block NOTCH signaling. As expected, treatment with DAPT led to downregulation of HESS, HEY1 and HEY2, the downstream targets of NOTCH signaling (Kopan and Ilagan, 2009).

[3] = system: NOTCH signaling; test: Expression of NOTCH downstream targets in iPSC-derived EPCs; settings: 10 μM
Procedure: as §1, §2

[4] = WNT activation in the presence of Noggin and SB431542, FIG. 1F
[5] = 10 μM, iPSC-derived EPCs, vs vehicle, FIG. 6D
[6] = BMP4 treatment vs vehicle, ESC and iPSC-derived EPCs, FIGS. 6A-B

Molecule: Cc1c[nH]c(-c2cnc(NCCNc3ccc(C#N)cn3)nc2-c2ccc(Cl)cc2Cl)n1 [GSK inhibitor]
- levels of the general foregut marker SOX2 [1, 4]: remained unchanged
- levels of the posterior foregut marker HNF6 [1, 4]: increased
- levels of the posterior foregut marker PROX1 [1, 4]: increased
- p63 expression [1, 4]: reduced p63 expression in a dose-dependent manner

Molecule: C[C@H](NC(=O)Cc1cc(F)cc(F)c1)C(=O)N[C@H](C(=O)OC(C)(C)C)c1ccccc1 [DAPT]
- expression of INV at the transcription and protein levels [2, 5]: reduced expression
- expression of KRT13 at the transcription and protein levels [2, 5]: reduced expression
- initial EPC commitment from the AFE ([1]; DAPT applied during PSC differentiation from AFE to EPC, FIG. 6C): did not affect
- HESS expression (downstream target of NOTCH signaling) [3]: downregulation
- HEY1 expression (downstream target of NOTCH signaling) [3]: downregulation
- HEY2 expression (downstream target of NOTCH signaling) [3]: downregulation

Molecule: Cc1ccc2nc(NC(=O)CSc3nc4c(c(=O)n3-c3ccccc3)SCC4)sc2c1 [IWP2]
- esophageal specification ([1]; Noggin plus SB431542 in combination with 0.5, 1 or 2 μM IWP2, day 6 to day 16, gene expression at day 16, FIG. 1I): does not affect
- p63 expression ([1]; added to culture treated with Noggin and SB431542 at day 6-16, FIG. 1I): did not further promote

B1: DKK1: WNT inhibitor (protein, UniProt O94907 32-266, looked up)
Dickkopf-related protein 1: TLNSVLNSNAIKNLPPPLGGAAGHPGSAVSAAPGILYPGGNKYQTIDNYQPYPCAEDEECGTDEYCASPTRGGDAGVQICLACRKRRKRCMRHAMCCPGNYCKNGICVSSDQNHFRGEIEETITESFGNDHSTLDGYSRRTTLSSKMYHTKGQEGSVCLRSSDCASGLCCARHFWSKICKPVLKEGQVCTKHRRKGSHGLEIFQRCYCGEGLSCRIQKDHHQASNSSRLHTCQRH
- p63 expression ([1]; WNT inhibitor alone, hPSCs, FIG. 1E): insufficient

B2: Noggin: BMP inhibitor (R&D Systems) (protein, UniProt Q13253 28-232, looked up)
Noggin: QHYLHIRPAPSDNLPLVDLIEHPDPIFDPKEKDLNETLLRSLLGGHYDPGFMATSPPEDRPGGGGGAAGGAEDLAELDQLLRQRPSGAMPSEIKGLEFSEGLAQGKKQRLSKKLRRKLQMWLWSQTFCPVLYAWNDLGSRFWPRYVKVGSCFSKRSCSVPEGMVCKPSKSVHLTVLRWRCQRRGGQRCGWIPIQYPIISECKCSC
- AFE differentiation into p63+ NKX2.1- EPCs ([1]; Noggin treatment alone at day 6-16, FIG. 1E): insufficient

B3: BMP4: BMP signaling activator, growth factor (R&D Systems) (protein, UniProt P12644 293-408, looked up)
Bone morphogenetic protein 4: SPKHHSQRARKKNKNCRRHSLYVDFSDVGWNDWIVAPPGYQAFYCHGDCPFPLADHLNSTNHAIVQTLVNSVNSSIPKACCVPTELSAISMLYLDEYDKVVLKNYQEMVVEGCGCR
- differentiation of hPSC-derived EPCs ([2]; BMP4 treatment): promotes
- levels of Involucrin (INV) [2, 6]: significantly increase
- levels of KRT13 [2, 6]: significantly increase
- levels of KRT14 ([2]; BMP4 treatment, FIG. 6B): increased
